Results on four compounds are retold here after publication PMC8370201, “Amaryllidaceae Alkaloid Cherylline Inhibits the Replication of Dengue and Zika Viruses” (Antimicrobial Agents and Chemotherapy, 2021).

Series [1] is described as follows: Cell viability (ATP, Cell-Titer GLO) in Huh7.5 cells. Type of series: cell-based. Particulars: human. How it is done: (§1) Where indicated for Huh7.5 and Vero E6 cells and PBMCs, cell viability was measured by monitoring of cellular ATP levels using the Cell-Titer GLO assay kit (Promega). Briefly, 10× 10^3 to 20 × 10^3 cells in 50 to 100 μl were seeded in 48-well or 96-well plates and cultured overnight. AAs were added at the designated concentrations for 24 or 48 h, as specified in the text. Then, 50 to 100 μl of room temperature Cell-Titer GLO reagent was added in each well to room temperature-equilibrated cell plates. Plates were rocked for 2 min and rested for 10 min, and the luminescence signal was measured using a microplate spectrophotometer (Biotek Synergy H1 or Tecan Spark multimode microplate reader). Viability was expressed as a fold change calculated using the value of DMSO-treated cells at each concentration; for each AA and CC50, values were determined.

The test system of the next series is ZIKV NS5 RdRp. Further details: method as in PMID 32452420. Conditions: 100 μM; cited from earlier work.
In series [2] the test system is DENVR2A. Particulars: CC50/EC50, Huh7.5.
The test system of a further series is West Nile virus NS5. Further details: method as in PMID 19062063. Conditions: cited from earlier work.
Another series relates to Huh7 cells. In words: XTT cytotoxicity assay in Huh7 cells. It is filed as cell-based, human. Conditions: 0.4 to 400 μM, 72 hours. Here is the method: Cytotoxicity properties were titrated by metabolism monitoring using the XTT [2,3-bis-(2-methoxy-4-nitro-5-sulfophenyl)-2H-tetrazolium-5-carboxanilide] assay kit (Roche, Millipore Sigma), as described before ([24]). Briefly, Huh7 cells were seeded at 10 × 10^3 cells per well in 96-well plates. […] After 72 h of incubation, medium was replaced by phenol-free DMEM (Wisent) containing 0.3 mg/ml XTT, and cells were incubated for 4 h. Absorbance was measured at 450nm using a microplate spectrophotometer (Synergy H1, Biotek). Treatment conditions with 0.5% DMSO were used as the reference control. The percentage of cell viability was calculated at each concentration.
A general note: Formazan colour is commonly taken as a measure of viable cells.

Series [3] deals with ZIKVR2A. Nature of the series: microbe, parasite or virus in culture. Conditions: Zika virus, Huh7.5, read-out: EC50 (μM) for ZIKVR2A, Huh7.5 cells, luciferase at 48 hpi.
Series [4] concerns DENVGFP. Nature of the series: DENVGFP reporter virus infection of Huh7 cells (flow cytometry / microscopy). Particulars: for DENVGFP infected cells by microscopy: MOI 0.15, 72 hpi. (Flow cytometry measures light scatter and fluorescence of single cells or particles in a stream.)
Series [5] concerns DENVR2A. Nature of the series: microbe, parasite or virus in culture. Conditions: Dengue virus, Huh7.5, read-out: EC50 (μM) for DENVR2A.
Series [6] has as its system ZIKVR2A. Particulars: for SI ZIKVR2A (therapeutic selectivity index): CC50/EC50, Huh7.5.
In a further series the test system is DENV. Further details: method as in PMID 20496087. Particulars: read-out: EC50, inhibition of DENV; cited from earlier work.
A further series relates to ZIKV MR766. In words: Plaque assay, infectious titers of WT ZIKV MR766 from Huh7.5 cells. Conditions: treated 2 hpi, supernatant 48 h later. Type of series: cell-based, Zika virus (ZIKV).
The next series concerns DENV2 16881s. Nature of the series: Plaque assay, infectious titers of WT DENV2 16881s from Huh7.5 cells. Type of series: cell-based, dengue virus (DENV). Particulars: treated 2 hpi, supernatant 48 h later. How it is done: Huh7.5 cells were infected with DENV 16881s, ZIKV H/PF/2013, or ZIKV MR766 (MOI, 0.1) or left uninfected. […] Supernatants were harvested 2 days pi, and PFU were determined by plaque assay on VeroE6 cells. Cells incubated overnight (2 × 10^5 cells/well in 24-well plates) were infected with 10-fold serially diluted virus-containing supernatants for 2 h at 37°C. Inoculum was then replaced with MEM (Life Technologies) containing 1.5% carboxymethylcellulose (Millipore-Sigma). ZIKV- and DENV-infected cells were incubated for 5 and 7 days, respectively. One volume of 10% formaldehyde was added to the cells for fixation. Two hours later, cells were washed with tap water and stained with a 1% crystal violet/10% ethanol solution for 30 min. Wells were rinsed with tap water, and the number of plaques were counted to calculate virus titers.

For series [7], the system named is ZIKV H/PF/2013. Nature of the series: Plaque assay, infectious titers of WT ZIKV H/PF/2013 from Huh7.5 cells. It is filed as cell-based, Zika virus (ZIKV). Particulars: treated 2 hpi, supernatant 48 h later.
The test system of a further series is PBMCs. Nature of the series: Cytotoxicity in PBMCs (ATP). It is filed as cell-based, human. Conditions: 48 h posttreatment, cherylline 30 μM. How it is done:
as §1

The subject of series [8] is DENVGFP. Nature of the series: Time-of-drug-addition and -removal assays, DENVGFP in Huh7 cells. Type of series: cell-based, dengue virus (DENV). Here is the method: For the time-of-drug-addition assay, at the time of infection, AAs were added in wells corresponding to 0 h. At 2 hpi, viral inoculum was removed from every well, and AAs were added back to wells corresponding to 0 h and 2 h. At 4, 7, 12, and 24 hpi, AAs or DMSO diluted in DMEM was added to the appropriate wells. After 72 h, cells were trypsinized and fixed in 4% formaldehyde to measure the percentage of infected cells on an FC500 MPL cytometer. Alternatively, pictures of Hoechst 33342-stained cells were acquired on an Axio Observer microscope. All assays were performed in triplicate.
At 2 hpi, plates were washed, and medium was replaced to remove remaining viruses in the supernatant. AAs were added back to all wells, except the ones corresponding to 2 h of treatment, in which fresh medium exclusive of any AA was added. Accordingly, after 4, 7, and 12 h of infection, the supernatant was replaced by fresh medium in corresponding wells. After 72 h of incubation, results were acquired as for the time-of-drug-addition assay. All assays were performed in triplicate.

For series [9], the system named is ZIKV H/PF/2013. Nature of the series: Viral RNA levels by RT-qPCR, ZIKV. It is filed as cell-based, Zika virus (ZIKV). Conditions: 12 and 24 h; MOI 2, Huh7.5, 50 μM. (In general: In qPCR the cycle at which signal appears reflects the starting amount.)
The test system of the next series is DENVGFP and DENV2 16881s. In words: Viral RNA levels by RT-qPCR, DENV. It is filed as cell-based, dengue virus (DENV). Conditions: 12 and 24 h; DENVGFP MOI 0.5 Huh7 25 μM; DENV2 16881s MOI 2 Huh7.5 50 μM.
Series [10] deals with DENVGFP. In words: DENVGFP infection of PBMCs with antibody-dependent enhancement (flow cytometry). Particulars: 30 μM.
The test system of series [11] is interferon-sensitive response element (ISRE) transcription. In words: Type I IFN activation assay (ISRE-luciferase) in LL171 cells. It is filed as cell-based, Murine. Particulars: 50 μM, 24 h. How it is done:
In vitro type I IFN activation was measured in LL171 cells using the luciferase assay system kit (Promega). Briefly, 200 μl LL171 reporter cells (L929 cells expressing an IFN stimulated response element [ISRE]-luciferase) were seeded at 1.5 × 10^4 cells/well in 96-well plates and cultured for 16 h. Medium was replaced with DMEM containing cherylline for 24 h. Supernatant was removed, cells were rinsed with PBS, and lysis buffer was added (luciferase assay reagent; Promega). Then, cells were scraped and transferred into opaque 96-well plates. LAR (luciferase assay reagent; Promega) was added to each well, and luminescence was measured at 480 nm using a microplate spectrophotometer (Synergy H1). 5,6-dimethylxanthenone-4-acetic acid (DMXAA, 20 μg/ml) was used as a positive control. All assays were performed in triplicate.

Series [12] has as its system VSV-G pseudotyped HIV-1GFP. It is filed as cell-based.
[13] abbreviates: added at 24 hpi, cherylline 50 μM, NITD008 10 μM.

pEC50: −log10 of the molar value. “Also recorded” adds a separate entry of the source. Where two headings read alike, the source gives them in different places. Where only a bound is given, the exact number is not on record here.

On to `O[C@H]1[C@H]2c3cc4c(cc3CN3CCC(=C[C@@H]1O)[C@H]23)OCO4` [Lycorine, lycorine], for which the CC50 (in general, the concentration giving 50% cytotoxicity) at 48 h in series [1] (Huh7.5 cells, Huh7.5, ATP, 48 h posttreatment, read-out: CC50) stood at 14.5 µM. Besides, the “inhibition of ZIKV NS5 RdRp activity in vitro” value in the series with ZIKV NS5 RdRp is 80%. For the same compound, the “SI DENVR2A (therapeutic selectivity index)” value in the series on DENVR2A [2] stood at 90.6. The “effect on West Nile virus NS5” value in the series on West Nile virus NS5 is reported as “no effect”. Further, the “cytotoxic activity of AAs” value in the series with Huh7 cells is “cytotoxic”. The results for the concentration for a half-maximal effect (EC50) in the series with ZIKVR2A [3] and with DENVR2A [5] were 0.41 µM and 0.16 µM, respectively. For the same compound, the “anti-DENV activity in screening (GFP microscopy, words)” value with DENVGFP [4] (Huh7, treated 2 h before DENVGFP MOI 0.15, 72 hpi, at the chosen concentration) was “sharp decrease in DENV-GFP-infected cells”. Besides, the “SI ZIKVR2A (therapeutic selectivity index)” value with ZIKVR2A [6] is given as 35.4.

On to `COc1cc2c(cc1OC)-c1cc3ccc(OC)c(OC)c3c[n+]1CC2` [Palmatine], for which the pEC50 (usually −log10 of the EC50, conventionally taken in molar units) with DENV was 4.58.

For `C#C[C@@]1(O)[C@H](O)[C@@H](CO)O[C@H]1n1ccc2c(N)ncnc21` [NITD008, reference compound], in the series on ZIKV MR766, the “production of ZIKV MR766 infectious particles (words)” value is “completely hindered the production of infectious particles”. For the same compound, the “production of DENV infectious particles (words)” value in the series on DENV2 16881s (AAs 50 μM) was “completely hindered the production of infectious particles”. Also, the “production of ZIKV H/PF/2013 infectious particles (words)” value with ZIKV H/PF/2013 [7] is recorded as “completely hindered the production of infectious particles”. Further, the “cytotoxicity in PBMCs” value in the series with PBMCs is on record as “cytotoxic in PBMCs”. Further, the “time of drug addition: effect on DENVGFP-infected Huh7 cells 72 hpi” value with DENVGFP [8] (NITD008 10 μM, added at 0, 2, 4, 7, or 12 hpi) was “abrogated GFP expression”; with DENVGFP [8] (setting [13]) it was “Low levels of infection rose”.

With `COc1cc2c(cc1O)CN(C)C[C@H]2c1ccc(O)cc1` [Cherylline, cherylline], the 50% cytotoxic concentration (CC50) at 48 h in series [1] is greater than 250 µM. Also, the “viral RNA levels (RT-qPCR)” value in the series with ZIKV H/PF/2013 [9] is on record as “decrease in viral RNA levels”; in the series with DENVGFP and DENV2 16881s it was “decrease in viral RNA levels”. The “decrease in WT ZIKV MR766 replication” value with ZIKV MR766 (AAs 50 μM) stood at 8 fold. In the series with ZIKV MR766 (AAs 50 μM), the “decrease in ZIKV MR766 viral titer” value turned out to be 88%. In the series with DENVR2A [2], the “SI DENVR2A (therapeutic selectivity index)” value is greater than 28. Besides, the “decrease in DENV 16881s viral titers” value with DENV2 16881s (50 μM) is given as 17 fold. In addition, in the series on ZIKV H/PF/2013 [7] (AAs 50 μM), the “decrease in ZIKV H/PF/2013 viral titer” value turned out to be 100 fold. Moreover, in the series with DENVGFP [10] (MOI 2, 72 hpi), the “median GFP+ cells” value was determined as 0.1%. Besides, in the series with DENVGFP [10] (MOI 2, 72 h), the “decrease in the percentage of GFP+ cells” value stood at 5.3 fold. Further, the “cytotoxic activity of AAs” value in the series on Huh7 cells is “cytotoxic”. The “infection after removal of compound 2 hpi vs continuous treatment” value in the series with DENVGFP [8] (Huh7, treated 2 h prior to infection, removed 2 hpi, microscopy) is given as “restored virus replication completely”. Also, the “time of drug addition: effect on DENVGFP-infected Huh7 cells 72 hpi” value with DENVGFP [8] (setting [13]) is “lost one-third of its inhibitory potential”; in the series with DENVGFP [8] (cherylline 50 μM, added at 12 hpi), “some cherylline antiviral activity was lost”; in the series on DENVGFP [8] (cherylline 50 μM, added between 0 and 7 hpi), “entirely blocked viral replication”. Also, the “time of drug removal: inhibition of DENVGFP replication” value in the series with DENVGFP [8] (cherylline 50 μM, present for the first 12 h) is listed as “successfully impaired DENV replication”; with DENVGFP [8] (cherylline 50 μM, removed at 2, 4, or 7 hpi) it was “inhibition of viral replication was lost”. Further, the EC50 (as a rule, the midpoint of the concentration-response curve) with ZIKVR2A [3] was determined as 20.3 µM; in the series on DENVR2A [5] it was 8.8 µM; with ZIKVR2A [6] (read-out: EC50 (μM) for ZIKVR2A, Huh7.5 cells, luciferase at 48 hpi), 20.3 µM. Besides, in series [11], the “type I interferon (IFN) induction, ISRE transcription” value is “did not trigger a significant amount of type I interferon”. For the same compound, the pEC50 with DENVGFP [4] (Dengue virus, Huh-7, read-out: EC50, DENVGFP infection) is 5.10. Besides, the “DENVGFP infected cells by microscopy” value in the series on DENVGFP [4] (Huh7, 0.4 μM) is given as “no apparent difference with the control”; in the series on DENVGFP [4] (Huh7, 2 μM), “most of the cells were infected”; in the series on DENVGFP [4] (Huh7, 10 μM), “Several foci of infected cells became visible”; in the series on DENVGFP [4] (Huh7, 50 μM), “no detectable infection; also recorded: no infected cells were observed”. The “SI ZIKVR2A (therapeutic selectivity index)” value in the series with ZIKVR2A [6] is reported as greater than 12.3. The “HIV-1 infection” value in series [12] is “no effect; also recorded: did not affect HIV-1 infection; also recorded: did not detect any antiretroviral activity”.
